The source of these data is ChEMBL document CHEMBL1154404 (Antimicrob Agents Chemother, 2007).

The structures appear in SMILES notation.

Series [1] can be described thus: Half life in healthy human at 2 mg, po twice a day for 30 days measured after 2 days of last dose. The class given is ADME, organism-based. The conditions noted are these: in vivo.
Series [2] is described as follows: Plasma concentration in fatty-liver cirrhosis patient plasma treated at 2 mg, po twice a day for 30 days measured after 15 hrs of last dose. The class given is ADME, organism-based. The conditions noted are these: human.
The next series concerns Plasma. As to the kind of experiment: Drug level in patient plasma. The class given is ADME, cell-free. The conditions noted are these: human.
Series [3] is described as follows: Half life in fatty-liver cirrhosis patient treated at 2 mg, po twice a day for 30 days measured after 2 days of last dose. The conditions noted are these: human, in vivo. The class given is ADME, organism-based.
Series [4] is filed under the species Homo sapiens. As to the kind of experiment: Drug elimination in healthy human assessed as cytochrome-dependent hepatic metabolism-mediated biliary elimination. The class given is ADME, organism-based. The conditions noted are these: in vivo.
Series [5] in a line: Plasma concentration in fatty-liver cirrhosis patient plasma treated at 2 mg, po twice a day for 30 days measured after 2 days of last dose. The class given is ADME, organism-based. The conditions noted are these: human.
The subject of series [6] is Homo sapiens. As to the kind of experiment: Volume of distribution in fatty-liver cirrhosis patient treated at 2 mg, po twice a day for 30 days measured after 2 days of last dose. The class given is ADME, organism-based. The conditions noted are these: in vivo, 48 h.
A short description of series [7]: Plasma concentration in fatty-liver cirrhosis patient treated at 2 mg, po twice a day for 30 days measured after 11 days of last dose. The class given is ADME, organism-based. The conditions noted are these: human.
For series [8], the species on record is Homo sapiens. As to the kind of experiment: Drug elimination in healthy human assessed as cytochrome-dependent hepatic metabolism-mediated kidney elimination. The class given is ADME, organism-based. The conditions noted are these: in vivo.
Series [9] relates to Homo sapiens. As to the kind of experiment: Volume of distribution in healthy human at 2 mg, po twice a day for 30 days measured after 2 days of last dose. The conditions noted are these: in vivo, 48 h. The class given is ADME, organism-based.

Consider `C[C@@H](c1ncncc1F)[C@](O)(Cn1cncn1)c1ccc(F)cc1F` [VORICONAZOLE], for which the half-life is 4.7 h in [1] and 53.1 h in series [3]. Besides, the concentration at 15 h in series [2] turned out to be 13900 ng/mL. The Drug uptake in the series with Plasma was above 2.05 µg/mL. The Activity in the series listed under Homo sapiens [4] stood at 20%; in the series listed under Homo sapiens [8] it was 80%. Also, the concentration at 48 h in series [5] came to 10000 ng/mL. In addition, the Vd was 0.13 L/kg in the series on Homo sapiens [6] and 2.04 L/kg with Homo sapiens [9]. Besides, the concentration at 264 h in series [7] is 660 ng/mL.
